Reference: patent US8183236B2, “Compounds with HIV-1 integrase inhibitory activity and use thereof as anti-HIV/AIDS therapeutics” (University of Southern California, priority 2007, dated 2012)

What follows are compounds tested against T1, HIV-1 integrase (wild-type IN) (Human immunodeficiency virus type 1 group M subtype B, UniProt P12497) (assay: HIV-1 integrase 3′-processing assay (32P-labeled 21-mer, gel)). Settings: unit inferred; read-out: IN inhibition activity 3′-processing.
Format: biochemical
Source text: (§1) The oligonucleotides 21 top, 5′-[…]-3′ (SEQ ID NO:1) and 21 bot, 5′-[…]-3′ (SEQ ID NO:2) were purchased from Norris Cancer Center Core Facility (University of Southern California) and purified by UV shadowing on polyacrylamide gel. To analyze the extent of 3′-processing and strand transfer using 5′-end labeled substrates, 21 top was 5′-end labeled using T4 polynucleotide kinase (Epicentre, Madison, Wis.) and γ [^32P]-ATP (Amersham Biosciences or ICN). The kinase was heat-inactivated and 21 bot was added in 1.5-molar excess. The mixture was heated at 95° C., allowed to cool slowly to room temperature, and run through a spin 25 mini-column (USA Scientific) to separate annealed double-stranded oligonucleotide from unincorporated material.
(§2) To determine the extent of 3′-processing and strand transfer, wild-type IN was preincubated at a final concentration of 200 nM with the inhibitor in reaction buffer (50 mM NaCl, 1 mM HEPES, pH 7.5, 50 μM EDTA, 50 μM dithiothreitol, 10% glycerol (w/v), 7.5 mM MnCl2, 0.1 mg/ml bovine serum albumin, 10 mM 2-mercaptoethanol, 10% dimethyl sulfoxide, and 25 mM MOPS, pH 7.2) at 30° C. for 30 min. Then, 20 nM of the 5′-end ^32P-labeled linear oligonucleotide substrate was added, and incubation was continued for an additional one hour. Reactions were quenched by the addition of an equal volume (16 μl) of loading dye (98% deionized formamide, 10 mM EDTA, 0.025% xylene cyanol and 0.025% bromophenol blue). An aliquot (5 μl) was electrophoresed on a denaturing 20% polyacrylamide gel (0.09 M tris-borate pH 8.3, 2 mM EDTA, 20% acrylamide, 8M urea).
(§3) Gels were dried, exposed in a PhosphorImager cassette, and analyzed using a Typhoon 8610 Variable Mode Imager (Amersham Biosciences) and quantitated using ImageQuant 5.2. Percent inhibition (% I) was calculated using the following equation: %I=100×[1−(D−C)/(N−C)]
(§4) where C, N, and D are the fractions of 21-mer substrate converted to 19-mer (3′-processing product) or strand transfer products for DNA alone, DNA plus IN, and IN plus drug, respectively. The IC50 values were determined by plotting the logarithm of drug concentration versus percent inhibition to obtain concentration that produced 50% inhibition. […]

Compound	IC50
Cn1c(SCC(=O)NNC(=O)c2ccccc2O)nnc1-c1ccccc1 [AS9A1]	64 ± 4 µM
COc1ccc(-n2c(Cc3ccccc3)nnc2SCC(=O)NNC(=O)c2ccccc2O)cc1 [AS9A2]	18 ± 1 µM
Cc1cc(C)nc(SCc2nnc(SCC(=O)NNC(=O)c3ccccc3O)n2-c2ccccc2)n1 [AS9A3]	51 ± 5 µM
O=C(CSc1nnc(Cc2ccccc2)n1C1CCCCC1)NNC(=O)c1ccccc1O [AS9A4]	21 ± 2 µM
Cc1cc(C)nc(SCc2nnc(SCC(=O)NNC(=O)c3ccccc3O)n2C)n1 [AS9A5]	< 100 µM
COc1ccccc1-n1c(SCC(=O)NNC(=O)c2ccccc2O)nnc1-c1ccccc1O [AS9A6]	8 ± 1 µM
O=C(CSc1nnc(-c2ccncc2)n1-c1ccc(F)cc1)NNC(=O)c1ccccc1O [AS9A7]	49 ± 1 µM
O=C(CSc1nnnn1-c1ccccc1)NNC(=O)c1ccc(O)cc1O [AS9A8]	68 ± 3 µM
O=C(CSc1nnc(-c2ccc(Cl)cc2)n1-c1ccccc1)NNC(=O)c1ccccc1O [AS9A9]	11 ± 3 µM
COc1ccc(-c2nnc(SCC(=O)NNC(=O)c3ccccc3O)n2-c2ccccc2)cc1OC [AS9A10]	22 ± 1 µM
O=C(CSc1nnc(-c2ccccc2O)n1Cc1ccccc1)NNC(=O)c1ccccc1O [AS9A11]	15 ± 3 µM
Cc1ccc(-n2c(SCC(=O)NNC(=O)c3ccccc3O)nnc2-c2ccccc2O)cc1 [AS9]	5 ± 2 µM
COc1ccc(OC)c(C2C(C(=O)c3ccc(Cl)cc3)=C(O)C(=O)N2CCCCCC(=O)O)c1 (stereo not drawn) [AS16]	88 µM
O=C(CSc1nnc(-c2ccccc2)n1Cc1ccccc1)NNC(=O)c1ccccc1O [AS90]	21 ± 6 µM
Cc1ccc(-n2c(SCC(=O)NNC(=O)c3ccccc3O)nnc2-c2ccccc2)cc1 [AS120]	23 ± 6 µM
COc1ccc(C2C(C(=O)c3ccc(Br)cc3)=C(O)C(=O)N2c2cccc(C(F)(F)F)c2)cc1OC (stereo not drawn) [AS134]	47 ± 7 µM
Cc1ccc(C(=O)C2=C(O)C(=O)N(c3ncc(S(=O)(=O)c4ccc([N+](=O)[O-])cc4)s3)C2c2cccc(Cl)c2)cc1 (stereo not drawn) [AS139 BAS 02234865]	27 ± 10 µM
COc1ccc(C2C(C(=O)c3ccc(Br)cc3)=C(O)C(=O)N2CCc2ccccc2)cc1OC (stereo not drawn) [AS143]	60 ± 3 µM
CCOc1ccc(C(=O)C2=C(O)C(=O)N(c3nccs3)C2c2ccc(O)c(OC)c2)cc1 (stereo not drawn) [AS161]	57 ± 27 µM
COc1ccc(C2C(C(=O)c3ccc(Br)cc3)=C(O)C(=O)N2c2cc(C(C)(C)C)on2)cc1OC (stereo not drawn) [AS171]	45 ± 8 µM
O=C(CSc1nnc(Cc2ccccc2)n1-c1cccc(Cl)c1)NNC(=O)c1ccccc1O [AS230]	9 ± 1 µM
O=C(O)c1cccc(-c2ccc(/C=N/Nc3nnn[nH]3)o2)c1 [AV15A1]	> 100 µM
N=C1NC(=O)/C(=C\c2ccc(-c3cccc(C(=O)O)c3)o2)S1 [AV15A2]	> 100 µM
O=C(O)c1cccc(-c2ccc(/C=N/NC(=O)c3cccnc3)o2)c1 [AV15A4]	> 100 µM
Nc1nonc1C(=O)N/N=C/c1ccc(-c2cccc(C(=O)O)c2)o1 [AV15A5]	> 100 µM
O=C(O)c1cccc(-c2ccc(/C=C3\Sc4ccccc4C3=O)o2)c1 [AV15A6]	76 µM
N#C/C(=C\c1ccc(-c2cccc(C(=O)O)c2)o1)c1nc2ccccc2[nH]1 [AV15A7]	> 100 µM
N#C/C(=C\c1ccc(-c2ccc(O)c(C(=O)O)c2)o1)c1nc2ccccc2[nH]1 [AV15A9]	25 ± 10 µM
N#C/C(=C\c1ccc(-c2ccc(Cl)c(C(=O)O)c2)o1)c1nc2ccccc2[nH]1 [AV15A10]	76 µM
CC1=C(C#N)c2nc(N)c(C#N)c(C)c2/C1=C/c1ccc(-c2cccc(C(=O)O)c2)o1 [AV15A11]	24 ± 16 µM

What follows are compounds tested against T1, HIV-1 integrase (wild-type IN) (assay: HIV-1 integrase strand transfer assay (32P-labeled 21-mer, gel)). Settings: unit inferred; read-out: IN inhibition activity Strand transfer.
Format: biochemical
Source text: as §1, §2, §3, §4

Compound	IC50
Cn1c(SCC(=O)NNC(=O)c2ccccc2O)nnc1-c1ccccc1 [AS9A1]	58 ± 2 µM
COc1ccc(-n2c(Cc3ccccc3)nnc2SCC(=O)NNC(=O)c2ccccc2O)cc1 [AS9A2]	17 ± 1 µM
Cc1cc(C)nc(SCc2nnc(SCC(=O)NNC(=O)c3ccccc3O)n2-c2ccccc2)n1 [AS9A3]	27 ± 8 µM
O=C(CSc1nnc(Cc2ccccc2)n1C1CCCCC1)NNC(=O)c1ccccc1O [AS9A4]	17 ± 1 µM
Cc1cc(C)nc(SCc2nnc(SCC(=O)NNC(=O)c3ccccc3O)n2C)n1 [AS9A5]	< 100 µM
COc1ccccc1-n1c(SCC(=O)NNC(=O)c2ccccc2O)nnc1-c1ccccc1O [AS9A6]	6 ± 1 µM
O=C(CSc1nnc(-c2ccncc2)n1-c1ccc(F)cc1)NNC(=O)c1ccccc1O [AS9A7]	31 ± 2 µM
O=C(CSc1nnnn1-c1ccccc1)NNC(=O)c1ccc(O)cc1O [AS9A8]	61 ± 6 µM
O=C(CSc1nnc(-c2ccc(Cl)cc2)n1-c1ccccc1)NNC(=O)c1ccccc1O [AS9A9]	5 ± 1 µM
COc1ccc(-c2nnc(SCC(=O)NNC(=O)c3ccccc3O)n2-c2ccccc2)cc1OC [AS9A10]	21 ± 1 µM
O=C(CSc1nnc(-c2ccccc2O)n1Cc1ccccc1)NNC(=O)c1ccccc1O [AS9A11]	9 ± 2 µM
Cc1ccc(-n2c(SCC(=O)NNC(=O)c3ccccc3O)nnc2-c2ccccc2O)cc1 [AS9]	3 ± 1 µM
COc1ccc(OC)c(C2C(C(=O)c3ccc(Cl)cc3)=C(O)C(=O)N2CCCCCC(=O)O)c1 (stereo not drawn) [AS16]	40 ± 5 µM
O=C(CSc1nnc(-c2ccccc2)n1Cc1ccccc1)NNC(=O)c1ccccc1O [AS90]	9 ± 7 µM
Cc1ccc(-n2c(SCC(=O)NNC(=O)c3ccccc3O)nnc2-c2ccccc2)cc1 [AS120]	12 ± 8 µM
COc1ccc(C2C(C(=O)c3ccc(Br)cc3)=C(O)C(=O)N2c2cccc(C(F)(F)F)c2)cc1OC (stereo not drawn) [AS134]	26 ± 9 µM
Cc1ccc(C(=O)C2=C(O)C(=O)N(c3ncc(S(=O)(=O)c4ccc([N+](=O)[O-])cc4)s3)C2c2cccc(Cl)c2)cc1 (stereo not drawn) [AS139 BAS 02234865]	8 ± 2 µM
COc1ccc(C2C(C(=O)c3ccc(Br)cc3)=C(O)C(=O)N2CCc2ccccc2)cc1OC (stereo not drawn) [AS143]	42 ± 10 µM
CCOc1ccc(C(=O)C2=C(O)C(=O)N(c3nccs3)C2c2ccc(O)c(OC)c2)cc1 (stereo not drawn) [AS161]	30 ± 7 µM
COc1ccc(C2C(C(=O)c3ccc(Br)cc3)=C(O)C(=O)N2c2cc(C(C)(C)C)on2)cc1OC (stereo not drawn) [AS171]	43 ± 26 µM
O=C(CSc1nnc(Cc2ccccc2)n1-c1cccc(Cl)c1)NNC(=O)c1ccccc1O [AS230]	8 ± 4 µM
O=C(O)c1cccc(-c2ccc(/C=N/Nc3nnn[nH]3)o2)c1 [AV15A1]	96 ± 6 µM
N=C1NC(=O)/C(=C\c2ccc(-c3cccc(C(=O)O)c3)o2)S1 [AV15A2]	90 ± 17 µM
O=C(O)c1cccc(-c2ccc(/C=N/NC(=O)c3cccnc3)o2)c1 [AV15A4]	96 ± 6 µM
Nc1nonc1C(=O)N/N=C/c1ccc(-c2cccc(C(=O)O)c2)o1 [AV15A5]	88 ± 21 µM
O=C(O)c1cccc(-c2ccc(/C=C3\Sc4ccccc4C3=O)o2)c1 [AV15A6]	24 µM
N#C/C(=C\c1ccc(-c2cccc(C(=O)O)c2)o1)c1nc2ccccc2[nH]1 [AV15A7]	17 µM
N#C/C(=C\c1ccc(-c2ccc(O)c(C(=O)O)c2)o1)c1nc2ccccc2[nH]1 [AV15A9]	14 ± 4 µM
N#C/C(=C\c1ccc(-c2ccc(Cl)c(C(=O)O)c2)o1)c1nc2ccccc2[nH]1 [AV15A10]	30 µM
CC1=C(C#N)c2nc(N)c(C#N)c(C)c2/C1=C/c1ccc(-c2cccc(C(=O)O)c2)o1 [AV15A11]	20 ± 13 µM
